Among the data in PubChem BioAssay AID1259407 (Chemical Carcinogenesis Research Information System (CCRIS), 2018) are mutagenic call values, retold here.

In the series the test system is CCRIS mutagenicity, Ames/micronucleus/aberration tests. The series can be described thus: CCRIS mutagenicity studies.
[1] abbreviates: Test System: AMES SALMONELLA TYPHIMURIUM, Strain/Indicator: TA98, Metabolic Activation: HAMSTER, LIVER, S-9, AROCLOR 1254 (10%), Method: PREINCUBATION
Setting [2] is: Test System: AMES SALMONELLA TYPHIMURIUM, Strain/Indicator: TA98, Metabolic Activation: NONE, Method: PREINCUBATION
[3] abbreviates: Test System: AMES SALMONELLA TYPHIMURIUM, Strain/Indicator: TA98, Metabolic Activation: RAT, LIVER, S-9, AROCLOR 1254 (10%), Method: PREINCUBATION
[4] abbreviates: Test System: AMES SALMONELLA TYPHIMURIUM, Strain/Indicator: TA100, Metabolic Activation: HAMSTER, LIVER, S-9, AROCLOR 1254 (10%), Method: PREINCUBATION
The mark [5] stands for this setting: Test System: AMES SALMONELLA TYPHIMURIUM, Strain/Indicator: TA100, Metabolic Activation: NONE, Method: PREINCUBATION
Where [6] appears, read: Test System: AMES SALMONELLA TYPHIMURIUM, Strain/Indicator: TA100, Metabolic Activation: RAT, LIVER, S-9, AROCLOR 1254 (10%), Method: PREINCUBATION
Setting [7] is: Test System: AMES SALMONELLA TYPHIMURIUM, Strain/Indicator: TA100, Metabolic Activation: RAT, LIVER, S-9, AROCLOR 1254, Method: STANDARD PLATE.
Setting [8] is: Test System: AMES SALMONELLA TYPHIMURIUM, Strain/Indicator: TA98, Metabolic Activation: NONE, Method: STANDARD PLATE.
[9] abbreviates: Test System: AMES SALMONELLA TYPHIMURIUM, Strain/Indicator: TA100, Metabolic Activation: NONE, Method: STANDARD PLATE.
[10] abbreviates: Test System: AMES SALMONELLA TYPHIMURIUM, Strain/Indicator: TA1535, Metabolic Activation: HAMSTER, LIVER, S-9, AROCLOR 1254 (10%), Method: PREINCUBATION
Where [11] appears, read: Test System: AMES SALMONELLA TYPHIMURIUM, Strain/Indicator: TA1535, Metabolic Activation: NONE, Method: PREINCUBATION
Where [12] appears, read: Test System: AMES SALMONELLA TYPHIMURIUM, Strain/Indicator: TA1535, Metabolic Activation: RAT, LIVER, S-9, AROCLOR 1254 (10%), Method: PREINCUBATION

Activity calls are given as the source filed them. How the calls were made is not given here.

Take `c1ccc2c(c1)-c1cccc3c1c-2cc1ccccc13`: the mutagenic call reads like this: under setting [1], “active; positive”; (Test System: AMES SALMONELLA TYPHIMURIUM, Strain/Indicator: TA98, Metabolic Activation: MOUSE, LIVER, S-9, AROCLOR 1254, Method: STANDARD PLATE) “active; positive”; under setting [2], “inactive; negative”; under setting [3], “inactive; negative”; under setting [4], “active; positive”; under setting [5], “inactive; negative”. Besides, the mutagenic call is “active; positive” (Test System: AMES SALMONELLA TYPHIMURIUM, Strain/Indicator: TA100, Metabolic Activation: RAT, LIVER, S-9, AROCLOR 1254); “active; positive” under setting [6]; “active; positive” under setting [7].

Consider `CC(C)(C)NCC(O)c1ccc(O)c(NC(N)=O)c1` (configuration not stated), for which the mutagenic call runs as follows: under setting [8], “inactive; negative”; (Test System: AMES SALMONELLA TYPHIMURIUM, Strain/Indicator: TA98, Metabolic Activation: RAT, LIVER, S-9, AROCLOR 1254, Method: STANDARD PLATE) “inactive; negative”; under setting [9], “inactive; negative”; under setting [7], “inactive; negative”.

Take `Cc1cccc2cccc([N+](=O)[O-])c12`: the mutagenic call under setting [2] is “active; positive”.

With `COc1cc(Nc2c3ccccc3nc3ccccc23)ccc1NS(C)(=O)=O`, the mutagenic call (Test System: MOUSE LYMPHOMA, Strain/Indicator: L5178Y (TK+/TK-), Metabolic Activation: NONE, Method: SUSPENSION/PLATE) was “active; positive”.

`COc1nncc2ccncc12`: the mutagenic call was “inactive; negative” under setting [2]; “inactive; negative” (Test System: AMES SALMONELLA TYPHIMURIUM, Strain/Indicator: TA98, Metabolic Activation: RAT, LIVER, S-9, PCB, Method: PREINCUBATION); “inactive; negative” under setting [5]; “inactive; negative” (Test System: AMES SALMONELLA TYPHIMURIUM, Strain/Indicator: TA100, Metabolic Activation: RAT, LIVER, S-9, PCB, Method: PREINCUBATION).

Consider `CC[C@@]1(O)C(=O)OCc2c1cc1n(c2=O)Cc2cc3c(CN(C)C)c(O)ccc3nc2-1`, for which the mutagenic call (Test System: CHINESE HAMSTER V-79, Strain/Indicator: V-79 (HPRT)/6-THIOGUANINE, Metabolic Activation: NONE) is “active; positive”.

With `Cc1ccc(OCC2CO2)cc1` (configuration not stated), the mutagenic call reads like this: under setting [5], “active; positive”; under setting [6], “active; positive”; under setting [10], “active; positive”; under setting [11], “active; positive”; under setting [12], “active; positive”.

With `Cc1ccc(C)o1`, the mutagenic call is, setting by setting: (Test System: AMES SALMONELLA TYPHIMURIUM, Strain/Indicator: TA97, Metabolic Activation: HAMSTER, LIVER, S-9, AROCLOR 1254 (10%), Method: PREINCUBATION) “inactive; negative”; (Test System: AMES SALMONELLA TYPHIMURIUM, Strain/Indicator: TA97, Metabolic Activation: HAMSTER, LIVER, S-9, AROCLOR 1254 (30%), Method: PREINCUBATION) “inactive; negative”; (Test System: AMES SALMONELLA TYPHIMURIUM, Strain/Indicator: TA97, Metabolic Activation: NONE, Method: PREINCUBATION) “inactive; negative”; (Test System: AMES SALMONELLA TYPHIMURIUM, Strain/Indicator: TA97, Metabolic Activation: RAT, LIVER, S-9, AROCLOR 1254 (10%), Method: PREINCUBATION) “inactive; negative”; (Test System: AMES SALMONELLA TYPHIMURIUM, Strain/Indicator: TA97, Metabolic Activation: RAT, LIVER, S-9, AROCLOR 1254 (30%), Method: PREINCUBATION) “inactive; negative”; under setting [1], “inactive; negative”. Moreover, the mutagenic call (Test System: AMES SALMONELLA TYPHIMURIUM, Strain/Indicator: TA98, Metabolic Activation: HAMSTER, LIVER, S-9, AROCLOR 1254 (30%), Method: PREINCUBATION) is “inactive; negative”; the mutagenic call under setting [2] is “inactive; negative”; the mutagenic call under setting [8] was “inactive; negative”; the mutagenic call under setting [3] is “inactive; negative”; the mutagenic call (Test System: AMES SALMONELLA TYPHIMURIUM, Strain/Indicator: TA98, Metabolic Activation: RAT, LIVER, S-9, AROCLOR 1254 (30%), Method: PREINCUBATION) is “inactive; negative”; the mutagenic call (Test System: AMES SALMONELLA TYPHIMURIUM, Strain/Indicator: TA98, Metabolic Activation: S-9, Method: STANDARD PLATE) is “inactive; negative”. For the same compound, the mutagenic call by setting is: under setting [4], “inactive; negative”; (Test System: AMES SALMONELLA TYPHIMURIUM, Strain/Indicator: TA100, Metabolic Activation: HAMSTER, LIVER, S-9, AROCLOR 1254 (30%), Method: PREINCUBATION) “inactive; negative”; under setting [5], “inactive; negative”; under setting [9], “inactive; negative”; under setting [6], “inactive; negative”; (Test System: AMES SALMONELLA TYPHIMURIUM, Strain/Indicator: TA100, Metabolic Activation: RAT, LIVER, S-9, AROCLOR 1254 (30%), Method: PREINCUBATION) “inactive; negative”. Further, the mutagenic call runs as follows: (Test System: AMES SALMONELLA TYPHIMURIUM, Strain/Indicator: TA100, Metabolic Activation: S-9, Method: STANDARD PLATE) “inactive; negative”; under setting [10], “inactive; negative”; (Test System: AMES SALMONELLA TYPHIMURIUM, Strain/Indicator: TA1535, Metabolic Activation: HAMSTER, LIVER, S-9, AROCLOR 1254 (30%), Method: PREINCUBATION) “inactive; negative”; under setting [11], “inactive; negative”; under setting [12], “inactive; negative”; (Test System: AMES SALMONELLA TYPHIMURIUM, Strain/Indicator: TA1535, Metabolic Activation: RAT, LIVER, S-9, AROCLOR 1254 (30%), Method: PREINCUBATION) “inactive; negative”.

Regarding `O=C1NCCN1c1nccs1`, the mutagenic call under setting [8] is “active; positive”.

With `CCOS(=O)(=O)c1ccc(C)cc1`, the mutagenic call reads like this: (End Point: IN VITRO MICRONUCLEUS, Test System: MOUSE LYMPHOMA L5178Y CELLS, Metabolic Activation: NONE) “active; positive”; (End Point: IN VITRO MICRONUCLEUS, Test System: MOUSE LYMPHOMA L5178Y CELLS, Metabolic Activation: RAT, LIVER, S-9) “active; positive”; (End Point: In vitro micronucleus, Test System: Chinese Hamster Ovary (CHO-WBL) cells, Metabolic Activation: None) “active; positive (p<0.01)”; under setting [9], “inactive; negative; authors describe results as weakly positive”; (Test System: AMES SALMONELLA TYPHIMURIUM, Strain/Indicator: TA100, Metabolic Activation: RAT, LIVER, S-9, Method: STANDARD PLATE) “inactive; negative; authors describe results as weakly positive”; (Test System: AMES SALMONELLA TYPHIMURIUM, Strain/Indicator: TA1535, Metabolic Activation: NONE, Method: STANDARD PLATE) “active; positive”. Besides, under “Test System: UDS HUMAN FIBROBLASTS, Strain/Indicator: THY INCORP (NON-S-PHASE), Metabolic Activation: NONE, Method: LIQUID SCINTILLATION COUNTING”, the mutagenic call is “active; positive”.
